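The compound was tested at five concentrations on cells cultured in 96-well plates, with a 48-hour exposure period. The concentration for 50% growth inhibition is given as GI50.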 Calls of active or inactive are those of the source. Rule as the data show it: active = GI50 up to about 1.1 µM and inactive = higher. Starred links: 1 amine or outer side, 2 acyl side, 3 side chain; linkers in the order of their positions; H or OH if unused. Non-standard residues stand in square brackets, D forms with d. Residues, ends and D or L forms follow the SMILES beside them. *: point of attachment. X47 = CCC(=O)CC1CC(C)CC(C(=O)[*:2])N1[*:1]; X46 = CCCCCCCCC(C)C(=O)*; Aib = CC(C)(N)C(=O)O; X48 = CC(CN(C)CCO)N*
Assays:
Test in all cases: NCI tumour cell line growth inhibition, 48 h
RXF 631 = tested on: RXF 631
HOP-18 = tested on: HOP-18
DMS-273 = tested on: DMS-273
XF498 = tested on: XF498
MDA-MB-231 = tested on: MDA-MB-231
MDA-MB-435 = tested on: MDA-MB-435
MCF7 = tested on: MCF7
MDA-N = tested on: MDA-N
T47D = tested on: T47D

COC(=O)[C@]1(C)CCC[C@@]2(C)C1CCC1=CC3(C(C)C)CCC12OO3 (stereo partly drawn)
GI50 (RXF 631): > 100 µM (inactive)

O=C(CC1C(=O)Nc2ccccc2[S+]1[O-])Nc1ccccc1 (stereo not drawn)
GI50 (RXF 631): > 100 µM (inactive)
GI50 (HOP-18): > 100 µM (inactive)
GI50 (DMS-273): > 100 µM (inactive)
GI50 (XF498): > 100 µM (inactive)

NC(=O)c1cc([N+](=O)[O-])cc([N+](=O)[O-])c1 [NITROMIDE]
GI50 (RXF 631): > 100 µM (inactive)
GI50 (DMS-273): > 100 µM (inactive)

CCOC(=O)C1(C#N)C(c2ccccc2)CC(O)(c2ccc(Cl)cc2)C(C(=O)c2ccc(Cl)cc2)C1c1ccccc1 (stereo not drawn)
GI50 (HOP-18): > 100 µM (inactive)
GI50 (DMS-273): 67.1 µM (inactive)
GI50 (XF498): 65.9 µM (inactive)

CSc1ccc2c(cc1=O)[C@@H](NC(=O)c1cccc([N+](=O)[O-])c1)CCc1cc(O)c(O)c(O)c1-2
GI50 (RXF 631): 36.1 µM (inactive)
GI50 (HOP-18): > 100 µM (inactive)
GI50 (DMS-273): 32 µM (inactive)

COC(=O)C1=Cc2c(OC)cc(OC)c(OC)c2[C@H](c2cc(OC)c(OC)cc2OC)C1C(=O)OC (stereo partly drawn)
GI50 (RXF 631): > 100 µM (inactive)
GI50 (DMS-273): 42.7 µM (inactive)
GI50 (XF498): > 100 µM (inactive)

O=C1N=CN=C2C=CC(Cl)=C(I)C12 (stereo not drawn)
GI50 (DMS-273): 73.8 µM (inactive)
GI50 (XF498): 51.1 µM (inactive)

CC(C)=CC(=O)N1CCN(C(=O)C=C(C)C)CC1
GI50 (RXF 631): > 100 µM (inactive)
GI50 (HOP-18): > 100 µM (inactive)
GI50 (DMS-273): > 100 µM (inactive)
GI50 (XF498): > 100 µM (inactive)

O=C1C2C3CC(C4C5C=CC(C5)C34)C2C2C3CC(C12)C1C2C=CC(C2)C31 (stereo not drawn)
GI50 (RXF 631): > 100 µM (inactive)
GI50 (HOP-18): > 100 µM (inactive)
GI50 (DMS-273): > 100 µM (inactive)
GI50 (XF498): > 100 µM (inactive)

COc1ccc(N2C(=O)[C@@H]3[C@H](C2=O)c2[nH]c4ccccc4c2C2CCC(C(C)(C)C)C[C@@H]23)cc1 (stereo partly drawn)
GI50 (DMS-273): 41.8 µM (inactive)
GI50 (XF498): 44.8 µM (inactive)

Clc1cc2ns[s+]c2cc1Cl
GI50 (RXF 631): 60.3 µM (inactive)
GI50 (DMS-273): 32.3 µM (inactive)
GI50 (XF498): > 83.6 µM (inactive)

CC(=O)NNc1nc(C)c(C(/C=C/c2ccc(Cl)cc2)=N\NS(=O)(=O)c2ccc(C)cc2)s1
GI50 (RXF 631): > 100 µM (inactive)
GI50 (HOP-18): > 100 µM (inactive)
GI50 (DMS-273): > 100 µM (inactive)
GI50 (XF498): > 60.4 µM (inactive)

CN1C(=S)CSc2ccccc21
GI50 (DMS-273): > 100 µM (inactive)
GI50 (XF498): 32.4 µM (inactive)

O=C1CN=C(C[N+](=O)[O-])c2ccccc21
GI50 (RXF 631): > 100 µM (inactive)
GI50 (HOP-18): > 100 µM (inactive)
GI50 (DMS-273): > 100 µM (inactive)

Oc1cc(-c2ccccn2)nc2cc(F)ccc12
GI50 (RXF 631): > 100 µM (inactive)
GI50 (HOP-18): 40.4 µM (inactive)

C[n+]1c2ccccc2c(NCC(=O)O)c2ccccc21
GI50 (HOP-18): > 100 µM (inactive)
GI50 (DMS-273): > 100 µM (inactive)

CC(C)[C@H](CCl)NC(=O)c1cccc(C(=O)N[C@H](CCl)C(C)C)n1 (stereo in doubt)
GI50 (RXF 631): > 100 µM (inactive)
GI50 (DMS-273): > 100 µM (inactive)
GI50 (XF498): > 100 µM (inactive)

NC(=S)NNC(=O)CCC(=O)Nc1ccc(Cl)cc1Cl
GI50 (RXF 631): > 100 µM (inactive)
GI50 (DMS-273): 38.7 µM (inactive)

Cc1ccccc1NC(=O)c1nc(S)nc(N)c1-c1ccccc1C
GI50 (HOP-18): > 100 µM (inactive)
GI50 (DMS-273): > 100 µM (inactive)

CC(CN1CCN(CC(C)Nc2ccnc3cc(Cl)ccc23)CC1)Nc1ccnc2cc(Cl)ccc12 (stereo not drawn)
GI50 (RXF 631): 12.4 µM (inactive)
GI50 (DMS-273): 16.3 µM (inactive)
GI50 (XF498): 23.3 µM (inactive)

COc1cc2c(c(OC)c1OC)-c1ccc(SC)c(=O)cc1C(CC(=O)Oc1ccccc1F)C2 (stereo not drawn)
GI50 (DMS-273): 0.00991 µM (active)

O=C(c1ccccc1)c1cccc(C(=O)c2ccccc2)c1
GI50 (HOP-18): > 100 µM (inactive)
GI50 (DMS-273): > 100 µM (inactive)
GI50 (XF498): > 100 µM (inactive)

CC1=C(C(=O)O)N2C(=O)[C@@H](NC(=O)C(c3ccc(O)cc3)N3CSC(=S)N(C(C)C)C3)C2SC1 (stereo partly drawn)
GI50 (HOP-18): > 100 µM (inactive)
GI50 (DMS-273): > 100 µM (inactive)
GI50 (XF498): > 100 µM (inactive)

O=C1C(Cl)C(c2ccccc2Cl)N1n1cnc2ccccc2c1=O (stereo not drawn)
GI50 (DMS-273): 26 µM (inactive)
GI50 (XF498): 67.6 µM (inactive)

O=C(c1ccccc1)c1c(CC(O)c2ccccc2)n(C(=O)c2ccccc2)c2ccccc12 (stereo not drawn)
GI50 (DMS-273): 43 µM (inactive)
GI50 (XF498): > 100 µM (inactive)

Cc1ccc(Oc2ccc(C(=O)c3cccc(C(=O)c4ccc(Oc5ccc(C)cc5)cc4)n3)cc2)cc1
GI50 (HOP-18): > 100 µM (inactive)
GI50 (DMS-273): > 100 µM (inactive)

O=C(O)c1nc(-c2ccc(Cl)c(Cl)c2)nc2ccc(Cl)cc12
GI50 (DMS-273): 44.7 µM (inactive)

COc1cc(CN[C@H]2CCc3cc(OC)c(OC)c(OC)c3-c3ccc(SC)c(=O)cc32)cc(OC)c1
GI50 (RXF 631): < 0.01 µM (active)
GI50 (DMS-273): 0.0341 µM (active)
GI50 (XF498): 0.0596 µM (active)

Cc1c(CCO)c(O)n2c(nc3ccccc32)c1C#N
GI50 (HOP-18): 47.5 µM (inactive)
GI50 (DMS-273): 63.2 µM (inactive)
GI50 (XF498): > 100 µM (inactive)

O=C(Cc1nc2ccccc2s1)C(=O)Nc1cccc(C(F)(F)F)c1
GI50 (HOP-18): > 100 µM (inactive)
GI50 (DMS-273): > 100 µM (inactive)

CCCCCCCCC(C)C(=O)N1CCCC1C(=O)N1C(CC(=O)CC)CC(C)CC1C(=O)NC(C)C(=O)NC(C)(C)C(=O)NC(C)(C)C(=O)NC(C(=O)NC(C)C(=O)NC(C)(C)C(=O)NC(C)(C)C(=O)NC(C)CN(C)CCO)C(C)CC (stereo not drawn) (X46-P[X47]A[Aib][Aib]IA[Aib][Aib]-X48; configuration not given here)
GI50 (MDA-MB-231): 0.56 µM (active)
GI50 (MDA-MB-435): 1.41 µM (inactive)
GI50 (MCF7): < 0.01 µM (active)
GI50 (MDA-N): 1.17 µM (inactive)
GI50 (T47D): < 0.01 µM (active)

Cc1ccc2c(c1)C(=O)C1(C2)Cc2ccc(C)cc2C1=O
GI50 (MDA-MB-231): > 100 µM (inactive)
GI50 (MDA-MB-435): > 100 µM (inactive)
GI50 (MCF7): > 100 µM (inactive)
GI50 (MDA-N): > 100 µM (inactive)
GI50 (T47D): > 100 µM (inactive)

CC(=O)O[C@H]1CCC2[C@@H]3CCC4=C(O)C(=O)C(C#N)C[C@]4(C)C3CC[C@@]21C (stereo partly drawn)
GI50 (DMS-273): 19.4 µM (inactive)
GI50 (XF498): 22 µM (inactive)

CCOC(=O)CCc1c(C)c2c(OC)cc(OC)cc2oc1=O
GI50 (HOP-18): 32.1 µM (inactive)
GI50 (DMS-273): 41.8 µM (inactive)
GI50 (XF498): 35.2 µM (inactive)

CN(C)CC/C(=N\Nc1ccc(Cl)c(Cl)c1)c1ccccc1
GI50 (HOP-18): 1.52 µM (inactive)
GI50 (DMS-273): 1.75 µM (inactive)
